The record followed here is patent US20230265151A1, “GIP/GLP1 CO-AGONIST COMPOUNDS” (priority 2020, published 2023).

Assay type in all cases: cell-based
In one test the target is hGLP-1R (Homo sapiens, UniProt P43220). As to the kind of experiment: Functional cAMP formation (HTRF) in HEK-293 clonal cells expressing hGLP-1R, 0.1% bovine casein, without or with 1.0% human serum albumin. On the set-up: expressed in transfected cells. The following applies: for EC50: geometric mean. In a few lines: (§1)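 Readings of the HTRF 665/620 nm ratio, which falls as cAMP rises, were converted to nM cAMP using a standard curve after 30 min peptide exposure at 37° C.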
A general note: cAMP levels reflect the balance of adenylyl cyclase and phosphodiesterase activity.

Another test has as its target T1, hGCGR (Homo sapiens, UniProt P47871).
T1 construct: expressed in transfected cells
The test is described as follows: Functional cAMP formation (HTRF) in HEK-293 clonal cells expressing hGCGR, 0.1% bovine casein, without or with 1.0% human serum albumin. To be noted: geometric mean. In a few lines:
as §1

For a further test, the target named is T2, hGIPR (Homo sapiens, UniProt P48546).
T2 construct: expressed in transfected cells
T2 sequence (P48546 22-466): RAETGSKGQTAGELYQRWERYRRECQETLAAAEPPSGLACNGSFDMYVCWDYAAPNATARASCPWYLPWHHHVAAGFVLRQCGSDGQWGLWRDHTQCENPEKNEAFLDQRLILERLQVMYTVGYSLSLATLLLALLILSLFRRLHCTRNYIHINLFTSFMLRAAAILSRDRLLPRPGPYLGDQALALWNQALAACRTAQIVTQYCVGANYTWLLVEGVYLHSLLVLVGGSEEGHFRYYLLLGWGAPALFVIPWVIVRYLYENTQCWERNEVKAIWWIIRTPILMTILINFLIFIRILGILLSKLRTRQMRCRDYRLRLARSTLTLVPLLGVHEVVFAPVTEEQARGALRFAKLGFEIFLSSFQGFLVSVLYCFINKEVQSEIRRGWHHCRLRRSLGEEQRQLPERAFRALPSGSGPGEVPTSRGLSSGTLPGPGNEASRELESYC
As to the kind of experiment: Functional cAMP formation (HTRF) in HEK-293 clonal cells expressing hGIPR, 0.1% bovine casein, without or with 1.0% human serum albumin. The following applies: for EC50: geometric mean. In outline:
as §1

The mark [1] stands for this setting: 0.1% bovine casein and 1.0% human serum albumin, 37° C., read-out: hGLP-1R EC50, nM (SEM, n).
The mark [2] stands for this setting: HEK293, 0.1% bovine casein and 1.0% human serum albumin, 37° C., percent of maximal response to GLP-1(7-36)NH2, read-out: hGLP-1R Emax, % ± SEM.
Setting [3] is: 0.1% bovine casein and 1.0% human serum albumin, 37° C., read-out: hGCGR EC50, nM (SEM, n).
[4] abbreviates: HEK293, 0.1% bovine casein and 1.0% human serum albumin, 37° C., percent of maximal response to GIP(1-42)NH2, read-out: hGIPR Emax, % ± SEM.

Read-outs that look alike come from different tables or passages of the source. *1 amine or outer side, *2 acyl side, *3 side chain or, on linkers, in order; H or OH if unused. Where a SMILES comes first, the peptide text is derived from it. Side-chain parts run from the residue outwards. [ ]: non-standard residue; d: D form. The star is where a group is joined. αMePhe(2-F) = C[C@](N)(Cc1ccccc1F)C(=O)O; γGlu = O=C(O)[C@H](CCC(=O)[*:2])N[*:1]; C14 diacid = O=C(O)CCCCCCCCCCCCC(=O)*; αMeY = C[C@](N)(Cc1ccc(O)cc1)C(=O)O; 4Pal = N[C@@H](Cc1ccncc1)C(=O)O; αMeL = CC(C)C[C@](C)(N)C(=O)O; Orn = NCCC[C@H](N)C(=O)O; AEEA = NCCOCCOCC(=O)O; Aib = CC(C)(N)C(=O)O

For orientation: EC50 means the concentration needed to bring the measured effect to its halfway point. Broadly, the Emax is the maximal effect, on the per cent scale that the assay sets.

Sequence of hGLP-1R (P43220 24-463): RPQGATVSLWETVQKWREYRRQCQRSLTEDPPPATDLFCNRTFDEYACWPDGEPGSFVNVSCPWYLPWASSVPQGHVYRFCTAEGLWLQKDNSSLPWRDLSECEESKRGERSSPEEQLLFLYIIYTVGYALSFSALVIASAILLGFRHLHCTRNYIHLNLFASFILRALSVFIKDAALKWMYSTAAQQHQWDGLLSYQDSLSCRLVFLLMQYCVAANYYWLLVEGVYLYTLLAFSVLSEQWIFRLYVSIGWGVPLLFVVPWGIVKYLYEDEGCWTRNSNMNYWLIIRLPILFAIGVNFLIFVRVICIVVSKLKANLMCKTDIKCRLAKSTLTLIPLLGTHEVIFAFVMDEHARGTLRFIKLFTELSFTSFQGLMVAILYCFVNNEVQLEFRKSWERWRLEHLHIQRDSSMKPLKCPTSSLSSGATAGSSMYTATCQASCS
T1 sequence (P47871 26-477): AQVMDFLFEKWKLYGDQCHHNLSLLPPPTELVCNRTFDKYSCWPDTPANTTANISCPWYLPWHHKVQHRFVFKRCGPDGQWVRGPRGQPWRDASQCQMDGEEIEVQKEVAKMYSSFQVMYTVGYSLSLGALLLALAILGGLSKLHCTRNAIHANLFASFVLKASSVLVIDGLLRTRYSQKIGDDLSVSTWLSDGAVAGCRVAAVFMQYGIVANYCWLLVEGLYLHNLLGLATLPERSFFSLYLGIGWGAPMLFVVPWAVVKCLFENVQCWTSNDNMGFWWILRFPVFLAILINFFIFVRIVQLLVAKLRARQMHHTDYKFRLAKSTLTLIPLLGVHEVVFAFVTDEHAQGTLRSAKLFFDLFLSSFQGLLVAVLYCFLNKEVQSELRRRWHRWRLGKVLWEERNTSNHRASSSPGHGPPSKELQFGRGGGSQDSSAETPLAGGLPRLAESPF

Take `CC[C@H](C)[C@H](NC(=O)[C@H](CCCN)NC(=O)[C@H](CC(=O)O)NC(=O)[C@H](CC(C)C)NC(=O)[C@](C)(CC(C)C)NC(=O)[C@@H](NC(=O)[C@H](CO)NC(=O)[C@H](CCc1ccc(O)cc1)NC(=O)[C@H](CC(=O)O)NC(=O)[C@H](CO)NC(=O)[C@@H](NC(=O)[C@](C)(Cc1ccccc1F)NC(=O)[C@@H](NC(=O)CNC(=O)[C@H](CCC(=O)O)NC(=O)C(C)(C)NC(=O)[C@@H](N)Cc1ccc(O)cc1)[C@@H](C)O)[C@@H](C)O)[C@@H](C)CC)C(=O)N[C@@H](C)C(=O)N[C@@H](CCC(N)=O)C(=O)NC(C)(C)C(=O)N[C@@H](CCC(=O)O)C(=O)N[C@@H](Cc1ccccc1)C(=O)N[C@H](C(=O)N[C@@H](CCCCNC(=O)COCCOCCNC(=O)COCCOCCNC(=O)CC[C@H](NC(=O)CCCCCCCCCCCCC(=O)O)C(=O)O)C(=O)N[C@@](C)(Cc1ccc(O)cc1)C(=O)N[C@@H](CC(C)C)C(=O)N[C@H](C(=O)N[C@@H](CCCCNC(=O)COCCOCCNC(=O)COCCOCCNC(=O)CC[C@H](NC(=O)CCCCCCCCCCCCC(=O)O)C(=O)O)C(=O)NCC(=O)NCC(=O)N1CCC[C@H]1C(=O)N[C@@H](CO)C(=O)N[C@@H](CO)C(=O)NCC(=O)N[C@@H](C)C(=O)N1CCC[C@H]1C(=O)N1CCC[C@H]1C(=O)N1CCC[C@H]1C(=O)N[C@@H](CO)C(N)=O)[C@@H](C)CC)[C@@H](C)CC` [Example 270]: the EC50 on hGLP-1R (setting [1]) is 32.6 nM; on hGCGR (setting [3]), > 9950 nM; at hGCGR (cAMP, 37° C., 0.1% bovine casein (no human serum albumin), read-out: hGCGR EC50, nM (SEM, n)), > 9950 nM. Moreover, the Emax worked out at 111% on hGLP-1R (setting [2]); 97% on hGLP-1R (HEK293, cAMP, 37° C., 0.1% bovine casein, percent of maximal response to GLP-1(7-36)NH2, arithmetic mean, read-out: hGLP-1R Emax, % ± SEM); 80.9% on hGIPR (setting [4]); 91.7% at hGIPR (HEK293, cAMP, 37° C., 0.1% bovine casein, percent of maximal response to GIP(1-42)NH2, arithmetic mean, read-out: hGIPR Emax, % ± SEM).

As for `CC[C@H](C)[C@H](NC(=O)[C@H](CCCN)NC(=O)[C@H](CC(=O)O)NC(=O)[C@H](CC(C)C)NC(=O)[C@](C)(CC(C)C)NC(=O)[C@@H](NC(=O)C(C)(C)NC(=O)[C@H](Cc1ccncc1)NC(=O)[C@H](CC(=O)O)NC(=O)[C@H](CO)NC(=O)[C@@H](NC(=O)[C@](C)(Cc1ccccc1F)NC(=O)[C@@H](NC(=O)CNC(=O)[C@H](CCC(=O)O)NC(=O)C(C)(C)NC(=O)[C@@H](N)Cc1ccc(O)cc1)[C@@H](C)O)[C@@H](C)O)[C@@H](C)CC)C(=O)N[C@@H](C)C(=O)N[C@@H](CCC(N)=O)C(=O)NC(C)(C)C(=O)N[C@@H](CCCCNC(=O)COCCOCCNC(=O)COCCOCCNC(=O)CC[C@H](NC(=O)CCCCCCCCCCCCC(=O)O)C(=O)O)C(=O)N[C@@H](Cc1ccccc1)C(=O)N[C@H](C(=O)N[C@@H](CCCCNC(=O)COCCOCCNC(=O)COCCOCCNC(=O)CC[C@H](NC(=O)CCCCCCCCCCCCC(=O)O)C(=O)O)C(=O)N[C@@](C)(Cc1ccc(O)cc1)C(=O)N[C@@H](CC(C)C)C(=O)N[C@H](C(=O)N[C@@H](CCC(=O)O)C(=O)NCC(=O)NCC(=O)N1CCC[C@H]1C(=O)N[C@@H](CO)C(=O)N[C@@H](CO)C(=O)NCC(=O)N[C@@H](C)C(=O)N1CCC[C@H]1C(=O)N1CCC[C@H]1C(=O)N1CCC[C@H]1C(=O)N[C@@H](CO)C(N)=O)[C@@H](C)CC)[C@@H](C)CC` [Example 218] (H-Y[Aib]EGT[αMePhe(2-F)]TSD[4Pal][Aib]I[αMeL]LD[Orn]IAQ[Aib]K([AEEA-AEEA-γGlu-C14 diacid])FIK([AEEA-AEEA-γGlu-C14 diacid])[αMeY]LIEGGPSSGAPPPS-NH2; N-terminus assumed), the Emax at hGLP-1R (HEK293, read-out: hGLP-1R Emax, % ± SEM, 0.1% bovine casein and 1.0% human serum albumin, 37° C., percent of maximal response to GLP-1(7-36)NH2) was 121%; at hGLP-1R (HEK293, read-out: hGLP-1R Emax, % ± SEM, percent of maximal response to GLP-1(7-36)NH2, 37° C., 0.1% bovine casein, arithmetic mean) it was 92.6%; at hGIPR (HEK293, read-out: hGIPR Emax, % ± SEM, 0.1% bovine casein and 1.0% human serum albumin, 37° C., percent of maximal response to GIP(1-42)NH2), 95.9%; at hGIPR (HEK293, read-out: hGIPR Emax, % ± SEM, percent of maximal response to GIP(1-42)NH2, 37° C., 0.1% bovine casein, arithmetic mean), 90.2%. The EC50 is 36.6 nM at hGLP-1R (hGLP-1R EC50, nM (SEM, n), 0.1% bovine casein and 1.0% human serum albumin, 37° C.); 0.714 nM at hGLP-1R (hGLP-1R EC50, nM (SEM, n), cAMP, incubated at 37° C., 0.1% bovine casein (no human serum albumin)); > 9950 nM on hGCGR (hGCGR EC50, nM (SEM, n), 0.1% bovine casein and 1.0% human serum albumin, 37° C.); > 9950 nM at hGCGR (hGCGR EC50, nM (SEM, n), cAMP, incubated at 37° C., 0.1% bovine casein (no human serum albumin)); 3.27 nM on hGIPR (hGIPR EC50, nM (SEM, n), 0.1% bovine casein and 1.0% human serum albumin, 37° C.); 0.0515 nM at hGIPR (hGIPR EC50, nM (SEM, n), cAMP, incubated at 37° C., 0.1% bovine casein (no human serum albumin)).

On to `CC[C@H](C)[C@H](NC(=O)[C@H](CC(C)C)NC(=O)[C@](C)(Cc1ccc(O)cc1)NC(=O)[C@@H](CCC(=O)O)NC(=O)[C@@H](NC(=O)[C@H](Cc1ccccc1)NC(=O)[C@H](CCC(=O)O)NC(=O)C(C)(C)NC(=O)[C@H](CCC(N)=O)NC(=O)[C@H](C)NC(=O)[C@H](CCCCNC(=O)[C@@H](N)CCCCNC(=O)CC[C@H](NC(=O)CCCCCCCCCCCCC(=O)O)C(=O)O)NC(=O)[C@H](CCCN)NC(=O)[C@H](CC(=O)O)NC(=O)[C@H](CC(C)C)NC(=O)[C@](C)(CC(C)C)NC(=O)[C@@H](NC(=O)[C@H](CO)NC(=O)[C@H](Cc1ccncc1)NC(=O)[C@H](CC(=O)O)NC(=O)[C@H](CO)NC(=O)[C@@H](NC(=O)[C@](C)(Cc1ccccc1F)NC(=O)[C@@H](NC(=O)CNC(=O)[C@H](CCC(=O)O)NC(=O)C(C)(C)NC(=O)[C@@H](N)Cc1ccc(O)cc1)[C@@H](C)O)[C@@H](C)O)[C@@H](C)CC)[C@@H](C)CC)C(=O)N[C@@H](CCC(=O)O)C(=O)NCC(=O)NCC(=O)N[C@@H](CCCCNC(=O)[C@@H](N)CCCCNC(=O)CC[C@H](NC(=O)CCCCCCCCCCCCC(=O)O)C(=O)O)C(=O)N[C@@H](CO)C(=O)N[C@@H](CO)C(=O)NCC(=O)N[C@@H](C)C(=O)N1CCC[C@H]1C(=O)N1CCC[C@H]1C(=O)N1CCC[C@H]1C(=O)N[C@@H](CO)C(N)=O` [Example 38], for which the EC50 is 12.5 nM at hGLP-1R (setting [1]); 0.225 nM at hGLP-1R (cAMP, incubated at 37° C., 0.1% bovine casein (no human serum albumin), read-out: hGLP-1R EC50, nM (SEM, n)); > 9950 nM at hGCGR (setting [3]); > 9950 nM at hGCGR (cAMP, incubated at 37° C., 0.1% bovine casein (no human serum albumin), read-out: hGCGR EC50, nM (SEM, n)); 0.539 nM on hGIPR (0.1% bovine casein and 1.0% human serum albumin, 37° C., read-out: hGIPR EC50, nM (SEM, n)); 0.0155 nM on hGIPR (cAMP, incubated at 37° C., 0.1% bovine casein (no human serum albumin), read-out: hGIPR EC50, nM (SEM, n)). Besides, the maximal response (Emax) worked out at 115 ± 2.53% on hGLP-1R (setting [2]) and 88.8 ± 0.59% on hGIPR (setting [4]).
